Measured values reported in the NIST ThermoML archive (doi:10.1016/j.fluid.2007.07.070).
Numbers after ± are expanded uncertainties.

Settings: Crystal; DTA

In the case of `O=C1c2ccccc2C(=O)C1c1nc2ccccc2cc1O` [1H-indene-1,3(2H)-dione, 2-(3-hydroxy-2-quinolinyl)-], the Normal melting temperature is reported as 260.6 ± 0.5 °C.
